The results in this text go back to patent US20050234041A1, “Substituted 1-benzazepines and derivatives thereof” (priority 2001, published 2005).

Converted amounts (≈) assume the structure as drawn. Read-outs that look alike come from different tables or passages of the source.

By melting point is commonly meant the temperature of the solid-liquid transition.

One data set concerns Campylobacter jejuni. The data set is described as follows: MIC, broth dilution method, Campylobacter jejuni. Format: cell-based. The note with it: for MIC: Campylobacter jejuni. From the text:
(§1) Antibacterial activity can be determined by several standard methods well known by those skilled in the art, including disc diffusions methods, broth dilution minimal inhibitory concentration (MIC) methods, etc., including the detailed method outlined below and as defined by the National Committee of Clinical Laboratory Standards in the United States.
(§2) MIC, Broth Dilution Method
(§3) Cultures of bacteria are initially brought up from the freezer stocks onto chocolate agar plates by streaking a loop-full, then incubated for 18 hours at 35-37° C. in a 5% CO2 incubator.
(§4) Five to 10 colonies are picked from the chocolate agar plate for subculture to Brain-Heart Infusion (BHI) broth or Mueller Hinton broth or BHI containing 4% serum and incubated as described.
(§5) Evaluate the optical density of the organisms in the wells of a 96 well microtiter plate with and without the test compound. The optical density of the organisms in the presence of an active compound will be less than the optical density of the same organism untreated. The activity of the compounds is described as either negative or the lowest concentration inhibiting growth. The results are depicted in Table III, where +/− represents the least activity and ++++ represents the greatest activity. In Table IV, the results are depicted where MIC represents the lowest concentration of antibiotic that inhibits bacterial growth.
(In broth dilution the organism is exposed to a series of concentrations in liquid medium.)

The subject of a further data set is Helicobacter pylori. The data set is described as follows: MIC, broth dilution method, Helicobacter pylori. The data set is classed as cell-based. Conditions: for MIC: Helicobacter pylori.
Source text: as §1, §2, §3, §4, §5

[1] abbreviates: Table V, read-out: MIC (μg/mL) C. jejuni.
The mark [2] stands for this setting: Table V, read-out: MIC (μg/mL) H. pylori.
Setting [3] is: Table IV, MIC, lowest concentration that inhibits bacterial growth, read-out: Antibacterial Activity (micrograms/ml) Campylobacter jejuni.
Where [4] appears, read: Table IV, MIC, lowest concentration that inhibits bacterial growth, read-out: Antibacterial Activity (micrograms/ml) Helicobacter pylori.
Where [5] appears, read: Table IV, MIC, lowest concentration that inhibits bacterial growth.

`COc1ccc2c(c1)NC(=O)C(C(=O)NOCc1ccccc1)CC2` (stereo not drawn) [Example 193, 3-Benzyloxyaminocarbonyl-8-methoxy-2,3,4,5-tetrahydro-1H-1-benzazepine-2-one]: the melting point was in the range of 162 to 164 °C. Also, the MIC in the data set with Campylobacter jejuni (setting [1]) was > 250 µg/mL. The MIC in the data set with Helicobacter pylori (setting [2]) is 4 µg/mL (≈ 11.8 µM).
For `COc1ccc2c(c1)NC(=O)CCC2` [Example 2, 8-Methoxy-2,3,4,5-tetrahydro-1H-1-benzazepine-2-one], the melting point lay in the range of 105 to 106 °C. The MIC in the data set with Campylobacter jejuni (setting [3]) stood at 50 µg/mL (≈ 261 µM). In the data set with Helicobacter pylori (setting [4]), the MIC is > 200 µg/mL.
As for `CCN1C(=O)CCCc2cc(Br)c(OC)cc21` [Example 9, 7-Bromo-1-ethyl-8-methoxy-2,3,4,5-tetrahydro-1H-1-benzazepine-2-one], the melting point lay within 133 to 135 °C. The MIC with Campylobacter jejuni (setting [3]) was > 200 µg/mL. Moreover, the MIC in the data set on Helicobacter pylori (setting [4]) turned out to be 100 µg/mL (≈ 335 µM).
Compound `O=C1CCCc2cc([N+](=O)[O-])c(O)cc2N1` [Example 175, 8-Hydroxy-7-nitro-2,3,4,5-tetrahydro-1 H-1-benzazepine-2-one] showed a melting point of 239 to 240 °C. In addition, the MIC in the data set on Campylobacter jejuni (setting [3]) turned out to be 30 µg/mL (≈ 135 µM). The MIC in the data set on Campylobacter jejuni (setting [1]) is 30 µg/mL (≈ 135 µM). Besides, the MIC with Helicobacter pylori (setting [4]) amounted to 1 µg/mL (≈ 4.5 µM). Further, in the data set on Helicobacter pylori (setting [2]), the MIC worked out at 1 µg/mL (≈ 4.5 µM).
On to `COc1cc2c(cc1[N+](=O)[O-])CCC(C(=O)OC(C)(C)C)C(=O)N2C(=O)OC(C)(C)C` (racemic) [Example 195, 1,3(R,S)-Di(tert-butoxycarbonyl)-8-methoxy-7-nitro-2,3,4,5-tetrahydro-1H-1-benzazepine-2-one], for which the melting point was 142 to 144 °C (dec.). Moreover, in the data set on Campylobacter jejuni (setting [1]), the MIC came to 60 µg/mL (≈ 137 µM). The MIC in the data set on Helicobacter pylori (setting [2]) amounted to 4 µg/mL (≈ 9.16 µM).
Regarding `CCN1C(=O)C(C(=O)OC(C)(C)C)CCc2cc(N3CCNCC3)c(OC)cc21` (racemic) [Example 18, 3(R,S)-tert-Butoxycarbonyl-1-ethyl-8-methoxy-7-(piperazin-1-yl)-2,3,4,5-tetrahydro-1H-1-benzazepine-2-one], the melting point was 165 °C (dec.). Besides, in the data set on Campylobacter jejuni (setting [3]), the MIC is > 200 µg/mL. The MIC with Helicobacter pylori (setting [4]) came out at 50 µg/mL (≈ 124 µM).
The corresponding values for `COc1cc2c(cc1Br)CCCC(=O)N2` [Example 24, 7-Bromo-8-methoxy-2,3,4,5-tetrahydro-1H-1-benzazepine-2-one] are 180 to 182 °C, > 200 µg/mL and 100 µg/mL (≈ 370 µM).
`CCN1C(=O)C(C(=O)OC(C)(C)C)CCc2ccc(O)cc21` (racemic) [Example 178, 3(R,S)-tert-Butoxycarbonyl-1-ethyl-8-hydroxy-2,3,4,5-tetrahydro-1H-1-benzazepine-2-one] gave a melting point of 154 to 156 °C. In the data set with Campylobacter jejuni (setting [1]), the MIC was > 200 µg/mL. Moreover, the MIC in the data set with Helicobacter pylori (setting [2]) was found to be 16 µg/mL (≈ 52.4 µM).
`COc1ccc2c(c1)N(C(=O)OC(C)(C)C)C(=O)C(C(=O)OC(C)(C)C)CC2` (racemic) [Example 23, 1-tert-Butoxycarbonyl-3(R,S)-tert-butoxycarbonyl-8-methoxy-2,3,4,5-tetrahydro-1H -benzazepine-2-one]: the melting point was in the range of 91 to 92 °C. Further, the MIC in the data set on Campylobacter jejuni (setting [3]) was 200 µg/mL (≈ 511 µM). The MIC with Helicobacter pylori (setting [4]) is 50 µg/mL (≈ 128 µM).
The like results for `CCOC(=O)C1CCc2ccc(OC)cc2NC1=O` (racemic) [Example 3, 3(R,S)-Ethoxycarbonyl-8-methoxy-2,3,4,5-tetrahydro-1H-1-benzazepine-2-one] were, in that order, 89 to 91 °C, 100 µg/mL (≈ 380 µM) and 50 to 100 µg/mL (≈ 190 to 380 µM).
With `CCN1C(=O)C(C(=O)O)CCc2cc(N3CCN(c4cc5c(cc4OC)N(CC)C(=O)C(C(=O)O)CC5)CC3)c(OC)cc21` [Example 20, 1,4-Di-[(3(R,S)-carboxyl-1-ethyl-8-methoxy-2-oxo-2,3,4,5-tetrahydro-1H-1-benzazepine)-7-yl]-piperazine], the “Antibacterial Activity (micrograms/ml) Campylobacter jejuni” value with Campylobacter jejuni (setting [5]) is on record as >200 micrograms/ml. For the same compound, in the data set on Helicobacter pylori (setting [5]), the “Antibacterial Activity (micrograms/ml) Helicobacter pylori” value was determined as 100 micrograms/ml.
Compound `COc1ccc2c(c1)NC(=O)C(C(=O)OC(C)(C)C)CC2` (racemic) [Example 11, 3(R,S)-tert-Butoxycarbonyl-8-methoxy-2,3,4,5-tetrahydro-1 H-1-benzazepine-2-one] yielded a melting point of 145 to 147 °C. Moreover, the MIC in the data set with Campylobacter jejuni (setting [3]) is 100 to 200 µg/mL (≈ 343 to 686 µM). Also, the MIC in the data set with Helicobacter pylori (setting [4]) was 50 µg/mL (≈ 172 µM).
Regarding `CCN1C(=O)CCCc2ccc(OC)cc21` [Example 8, 1-Ethyl-8-methoxy-2,3,4,5-tetrahydro-1H-1-benzazepine-2-one], the MIC is 50 µg/mL (≈ 228 µM) in the data set with Campylobacter jejuni (setting [3]) and > 200 µg/mL in the data set on Helicobacter pylori (setting [4]).
For `O=C1CCCc2c(O)cccc2N1` [Example 188, 6-Hydroxy-2,3,4,5-tetrahydro-1H-1-benzazepine-2-one], the figures for the MIC in the data set on Campylobacter jejuni (setting [1]) and with Helicobacter pylori (setting [2]) were > 250 µg/mL and 32 µg/mL (≈ 181 µM), respectively.
In the case of `COc1ccc2c(c1)N(CCN1CCOCC1)C(=O)C(C(=O)OC(C)(C)C)CC2` (racemic) [Example 213, 3(R,S)-tert-Butoxycarboxyl-8-methoxy-1-[2-(4-morpholinyl)]ethyl-2,3,4,5-tetrahydro-1H-1-benzazepine-2-one], the “MIC (μg/mL) C. jejuni” value with Campylobacter jejuni (Table V) is >250, μg/mL. Besides, the “MIC (μg/mL) H. pylori” value against Helicobacter pylori (Table V) turned out to be 125 µg/mL (≈ 309 µM).
For the compound `CCN1C(=O)C(C(=O)OC(C)(C)C)CCc2cc(Br)c(OC)cc21` (racemic) [Example 13, 7-Bromo-3(R,S)-tert-butoxycarbonyl-1-ethyl-8-methoxy-2,3,4,5-tetrahydro-1H-1-benzazepine-2-one], the melting point lay in the range of 131 to 132 °C. Besides, the MIC in the data set on Campylobacter jejuni (setting [3]) is > 200 µg/mL. Also, the MIC in the data set with Helicobacter pylori (setting [4]) is 6.25 to 12.5 µg/mL (≈ 15.7 to 31.4 µM).
With `COc1ccc2c(c1)N(CCO)C(=O)C(C(=O)OC(C)(C)C)CC2` (racemic) [Example 222, 3(R,S)-tert-Butoxycarbonyl-1-(2-hydroxy)ethyl-8-methoxy-2,3,4,5-tetrahydro-1H-1-benzazepine-2-one], in the data set on Campylobacter jejuni (Table V), the “MIC (μg/mL) C. jejuni” value is given as >250, μg/mL. Further, the “MIC (μg/mL) H. pylori” value against Helicobacter pylori (Table V) turned out to be 60 µg/mL (≈ 179 µM).
Compound `CCN1C(=O)C(C(=O)OC(C)(C)C)CCc2ccc(OC)cc21` (racemic) [Example 12, 3(R,S)-tert-Butoxycarbonyl-1-ethyl-8-methoxy-2,3,4,5-tetrahydro-1H-1-benzazepine-2-one] had a melting point of 132 to 133 °C. Also, the MIC in the data set with Campylobacter jejuni (setting [3]) was > 200 µg/mL. The MIC with Helicobacter pylori (setting [4]) stood at 50 µg/mL (≈ 157 µM).
For `O=C1CCCc2ccccc2N1` [Example 187, 2,3,4,5-tetrahydro-1H-1-benzazepine-2-one], the MIC in the data set on Campylobacter jejuni (setting [1]) was > 250 µg/mL; in the data set on Helicobacter pylori (setting [2]), 64 µg/mL (≈ 397 µM).
In the case of `COc1cc2c(cc1[N+](=O)[O-])CCC(C(=O)OC(C)(C)C)C(=O)N2CCOC1CCCCO1` [Example 224, 3(R,S)-tert-Butoxycarbonyl-8-methoxy-7-nitro-1-[2-(tetrahydro-2H-pyran-2-yloxy)]ethyl-2,3,4,5-tetrahydro-1H-1-benzazepine-2-one], in the data set on Campylobacter jejuni (Table V), the “MIC (μg/mL) C. jejuni” value is listed as >250, μg/mL. In the data set on Helicobacter pylori (Table V), the “MIC (μg/mL) H. pylori” value was 60 µg/mL (≈ 129 µM).
Compound `CCN1C(=O)C(C(=O)O)CCc2ccc(OC)cc21` (racemic) [Example 5, 3(R,S)-Carboxyl-1-ethyl-8-methoxy-2,3,4,5-tetrahydro-1H-1-benzazepine-2-one] showed a melting point of 120 to 121 °C. The MIC in the data set with Campylobacter jejuni (setting [3]) was > 200 µg/mL. For the same compound, in the data set with Helicobacter pylori (setting [4]), the MIC came out at 100 µg/mL (≈ 380 µM).
In the case of `CCOC(=O)NC(=S)Nc1cc2c(cc1O)NC(=O)C(C(=O)OC(C)(C)C)CC2` (racemic) [Example 215, 3(R,S)-tert-Butoxycarbonyl-7-[(ethoxycarbonylamino)thiocarbonyl)]amino-8-hydroxyl-2,3,4,5-tetrahydro-H-1-benzazepine-2-one], in the data set on Campylobacter jejuni (Table V), the “MIC (μg/mL) C. jejuni” value is on record as >250, μg/mL. Also, the “MIC (μg/mL) H. pylori” value in the data set on Helicobacter pylori (Table V) amounted to 30 µg/mL (≈ 70.8 µM).
